Data from BindingDB's records for doi:10.1021/jm0496077 (University of Southern California, 2005).

Target: Integrase (Human immunodeficiency virus 1)
Assay: Concentration required to inhibit catalytic activity of human immuno deficiency virus type 1 integrase

Q: `O=C(/C=C(\O)c1ccc(Cc2ccc(F)cc2)o1)c1cc[nH]c1` was tested. Which IC50 did it give?
A: The IC50 was under 1 µM.
